Reference: patent US12110293B2, “Substituted triazolo quinoxaline derivatives” (GRÜNENTHAL GMBH, priority 2018, dated 2024)

Target: T1, glucocorticoid receptor (Homo sapiens, UniProt P04150)
T1 construct: expressed in transfected cells
T1 sequence (P04150 524-758 limits assumed): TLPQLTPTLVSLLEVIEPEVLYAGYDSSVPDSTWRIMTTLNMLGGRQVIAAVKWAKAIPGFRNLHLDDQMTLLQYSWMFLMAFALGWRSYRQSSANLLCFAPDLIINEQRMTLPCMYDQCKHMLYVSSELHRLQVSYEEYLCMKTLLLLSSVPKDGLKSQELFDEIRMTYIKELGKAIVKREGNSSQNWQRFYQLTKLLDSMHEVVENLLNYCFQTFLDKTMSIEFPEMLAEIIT
Experiment: Agonistic mode of action on the glucocorticoid receptor (CHO-Gal4/GR luciferase reporter cell line)
Assay type: cell-based
Settings: range class observed in the agonistic assay or the antagonistic assay (CHO-Gal4/GR reporter cells); table does not say which mode applies per example
Description: Potential selective glucocorticoid receptor modulators of this intervention can be tested for modulation of the activity of the glucocorticoid receptor using cell-based assays. These assays involve a Chinese hamster ovary (CHO) cell line which contains fragments of the glucocorticoid receptor as well as fusion proteins. The glucocorticoid receptor fragments used are capable of binding the ligand (e.g. beclomethasone) to identify molecules that compete for binding with glucocorticoid receptor ligands. In more detail, the glucocorticoid receptor ligand binding domain is 25 fused to the DNA binding domain (DBD) of the transcriptionfactor GAL4 (GAL4 DBD-GR) and is stably integrated into a CHO cell line containing a GAL4-UAS-Luciferase reporter construct. […] After cell lysis the luminescence that is produced by luciferase after addition of the substrate is detected and EC50 or IC50 values can be calculated. Engagement of molecules which induce gene expression via glucocortocoid receptor binding to the DNA leads to expression of the luciferase gene under the control of the fusion protein GAL4 DBD-GR and therefore to a dose-dependent increase of the luminescence signal. Binding of molecules which repress beclomethasone-induced gene expression of the luciferase gene under the control of the fusion protein GAL4 DBD-GR leads to a dose-dependent reduction of the luminescence signal.
Biological Assays Agonistic Mode of Action on the Glucocorticoid Receptor
The reporter cell line CHO-Gal4/GR consisted of a Chinese hamster ovary (CHO) cell line (Leibniz Institute DSMZ—German Collection of Microorganisms and Cell CuItures GmbH: ACC-110) containing a firefly luciferase gene under the control of the GR ligand binding domain fused to the DNA binding domain (DBD) of GAL4 (GAL4 DBD-GR) stably integrated into CHO cells. This cell line was established by stable transfection of CHO cells with a GAL4-UAS-Luciferase reporter construct. In a subsequent step the ligand binding domain of the GR cloned into pIRES2-EGFP-GAL4 containing the DNA binding domain of GAL4 from pFA-AT2 was transfected. This fusion construct activated firefly luciferase expression under the control of a multimerized GAL4 upstream activation sequence (UAS). The signal of the emitted luminescence was recorded by the FLIPR^TETRA. This allowed for specific detection of ligand-induced activation of the GR and therefore for the identification of compounds with agonistic properties. The GAL4/UAS reporter was premixed with a vector that constitutively expressed Renilla luciferase, which served as an internal positive control for transfection efficiency.
The complete culture medium for the assay was: • DMEM F-12 (1:1) MIXTURE (LONZA cat. N°: BE04-687F/U1) 500 mL • 5 mL of 100 mM Sodium Pyruvate (LONZA cat. N°: BE12-115E) • 25 mL of 7.5% Sodium Bicarbonate (LONZA cat. N° BE17-613E) • 6.5 mL of 1 M Hepes (LONZA cat. N°: BE17-737E) • 5 mL of 100× Penicillin/Streptomycin (LONZA cat. N° DE17-602E) • 50 mL of Fetal Bovine Serum (Euroclone cat. N° ECS 0180L) • 0.25 mL of 10 mg/mL Puromycin (InvivoGen cat.: ant-pr-1) • 0.5 mL of 100 mg/mL Zeocin (InvivoGen cat.: ant-zn-1)
Cryo-preserved CHO-Gal4/GR cells were suspended in complete medium and 5000 cells/25 μl/well were seeded into the wells of 384-well polystyrene assay plates (Thermo Scientific, cat. #4332) and cultured at 37° C., 5% CO2 and 95% humidity. After 24 hours growth medium was carefully removed and replaced by 30 μl Opti-MEM (GIBCO, cat. #31985062) as assay buffer. To test the compounds an 8-point half-log compound dilution curve was generated in 100% DMSO starting from a 2 mM stock and compounds were then diluted 1:50 in Opti-MEM. 10 μl of compounds were then added to the wells containing 30 μl Opti-MEM resulting in a final assay concentration range from 10 μM to 0.003 μM in 0.5% DMSO. Compounds were tested at 8 concentrations in quadruplicate data points.

Row | SMILES | IC50 or EC50 (agonist or antagonist mode not specified)
1 | Cc1nnc2n1-c1c(cc(F)c(-c3ccc(Cl)c4[nH]ccc34)c1C(F)(F)F)NC2(C)C [Example 530, 8-(7-Chloro-1H-indol-4-yl)-7-fluoro-1,4,4-trimethyl-9-(trifluoromethyl)-5H-[1,2,4] triazolo[4,3-a]quinoxaline] | 100 to 1000 nM
2 | CCn1cc2c(-c3c(F)cc4c(c3F)-n3c(C)nnc3C(C)(C)N4)cccc2n1 [Example 237, 8-(2-Ethyl-2H-indazol-4-yl)-7,9-difluoro-1,4,4-trimethyl-5H-[1,2,4]triazolo[4,3-a]quinoxaline] | 1000 to 15000 nM
3 | Cc1c[nH]c2c(-c3c(F)cc4c(c3F)-n3c(Cc5ccccn5)nnc3C(C)(C)N4)cc(F)cc12 [Example 74, 7,9-Difluoro-8-(5-fluoro-3-methyl-1H-indol-7-yl)-4,4-dimethyl-1-(pyridin-2-yl-methyl)-5H-[1,2,4]triazolo[4,3-a]quinoxaline] | < 100 nM
4 | Cc1c(-c2cccc3c2cnn3S(C)(=O)=O)c(F)cc2c1-n1c(C)nnc1C(C)(C)N2 [Example 377, 7-Fluoro-1,4,4,9-tetramethyl-8-(1-methylsulfonyl-1H-indazol-4-yl)-5H-[1,2,4]triazolo[4,3-a]quinoxaline] | 100 to 1000 nM
5 | COc1cc2c(c(F)c1-c1cccc3c1ccn3CC(F)F)-n1c(C)nnc1C(C)(C)N2 [Example 314, 8-[1-(2,2-Difluoro-ethyl)-1H-indol-4-yl]-9-fluoro-7-methoxy-1,4,4-trimethyl-5H-[1,2,4]triazolo[4,3-a]quinoxaline] | 1000 to 15000 nM
6 | COCCn1c(C(F)(F)F)cc2c(-c3c(F)cc4c(c3F)-n3c(C)nnc3C(C)(C)N4)cccc21 [Example 289, 7,9-Difluoro-8-[1-(2-methoxy-ethyl)-2-(trifluoromethyl)-1H-indol-4-yl]-1,4,4-trimethyl-5H-[1,2,4]triazolo[4,3-a]quinoxaline] | 1000 to 15000 nM
7 | Cc1c(-c2cc(F)cc3c(C)c[nH]c23)ccc2c1-n1c(C)nnc1C(C)(C)N2 [Example 452, 8-(5-Fluoro-3-methyl-1H-indol-7-yl)-1,4,4,9-tetramethyl-5H-[1,2,4]triazolo[4,3-a]quinoxaline] | < 100 nM
8 | Cc1c[nH]c2c(-c3c(F)cc4c(c3F)-n3c(Cc5cccnc5)nnc3C(C)(C)N4)cc(F)cc12 [Example 73, 7,9-Difluoro-8-(5-fluoro-3-methyl-1H-indol-7-yl)-4,4-dimethyl-1-(pyridin-3-yl-methyl)-5H-[1,2,4]triazolo[4,3-a]quinoxaline] | 100 to 1000 nM
9 | Cc1cc2c(c(F)c1-c1cc(F)cc3c1ccn3C)-n1c(C)nnc1C(C)(C)N2 [Example 520, 9-Fluoro-8-(6-fluoro-1-methyl-1H-indol-4-yl)-1,4,4,7-tetramethyl-5H-[1,2,4]triazolo[4,3-a]quinoxaline] | 100 to 1000 nM
10 | Cc1nnc2n1-c1c(cc(F)c(-c3cccc4c3cnn4S(C)(=O)=O)c1C(F)(F)F)NC2(C)C [Example 446, 7-fluoro-1,4,4-trimethyl-8-(1-(methylsulfonyl)-1H-indazol-4-yl)-9-(trifluoromethyl)-4,5-dihydro-[1,2,4]triazolo[4,3-a]quinoxaline] | 100 to 1000 nM
11 | Cc1c(-c2cccc3c2ccn3S(C)(=O)=O)c(OC(F)(F)F)cc2c1-n1c(C)nnc1C(C)(C)N2 [Example 465, 1,4,4,9-Tetramethyl-8-(1-methylsulfonyl-1H-indol-4-yl)-7-(trifluoromethyloxy)-5H-[1,2,4]triazolo[4,3-a]quinoxaline] | < 100 nM
12 | COc1c(-c2cccc3c2ccn3S(C)(=O)=O)c(F)cc2c1-n1c(C)nnc1C(C)(C)N2 [Example 248, 7-Fluoro-9-methoxy-1,4,4-trimethyl-8-(1-methylsulfonyl-1H-indol-4-yl)-5H-[1,2,4]triazolo[4,3-a]quinoxaline] | 100 to 1000 nM
13 | Cc1cc2c(c(C)c1-c1cccc3c1ccn3CC(F)F)-n1c(C)nnc1C(C)(C)N2 [Example 324, 8-[1-(2,2-Difluoro-ethyl)-1H-indol-4-yl]-1,4,4,7,9-pentamethyl-5H-[1,2,4]triazolo[4,3-a]quinoxaline] | 100 to 1000 nM
14 | Cc1c(-c2cccc3[nH]ccc23)c(F)cc2c1-n1c(C)nnc1C(C)(C)N2 [Example 399, 7-Fluoro-8-(1H-indol-4-yl)-1,4,4,9-tetramethyl-5H-[1,2,4]triazolo[4,3-a]quinoxaline] | < 100 nM
15 | Cc1nnc2n1-c1c(cc(F)c(-c3cccc4c3ccn4CC(=O)N(C)C)c1F)NC2(C)C [Example 212, 2-[4-(7,9-Difluoro-1,4,4-trimethyl-5H-[1,2,4]triazolo[4,3-a]quinoxalin-8-yl)-1H-indol-1-yl]-N,N-dimethyl-acetamide] | 1000 to 15000 nM
16 | Cc1c(-c2cccc3c(C)c[nH]c23)c(OC(F)F)cc2c1-n1c(C)nnc1C(C)(C)N2 [Example 360, 7-(Difluoro-methoxy)-1,4,4,9-tetramethyl-8-(3-methyl-1H-indol-7-yl)-5H-[1,2,4]triazolo[4,3-a]quinoxaline] | 100 to 1000 nM
17 | Cc1cc(-c2c(F)cc3c(c2F)-n2c(C)nnc2C(C)(C)N3)c2ccn(S(C)(=O)=O)c2c1 [Example 492, 7,9-Difluoro-1,4,4-trimethyl-8-(6-methyl-1-methylsulfonyl-1H-indol-4-yl)-5H-[1,2,4]triazolo [4,3-a]quinoxaline] | < 100 nM
18 | Cc1c(-c2ccc(F)c3[nH]ccc23)c(F)cc2c1-n1c(C)nnc1C(C)(C)N2 [Example 504, 7-Fluoro-8-(7-fluoro-1H-indol-4-yl)-1,4,4,9-tetramethyl-5H-[1,2,4]triazolo[4,3-a]quinoxaline] | 100 to 1000 nM
19 | Cc1c[nH]c2c(-c3c(F)cc4c(c3C(F)(F)F)-n3c(C)nnc3C(C)(C)N4)cccc12 [Example 29, 7-fluoro-1,4,4-trimethyl-8-(3-methyl-1H-indol-7-yl)-9-(trifluoromethyl)-4,5-dihydro-[1,2,4]triazolo[4,3-a]quinoxaline] | < 100 nM
20 | COC(=O)CCn1ccc2c(-c3c(F)cc4c(c3F)-n3c(C)nnc3C(C)(C)N4)cccc21 [Example 219, 3-[4-(7,9-Difluoro-1,4,4-trimethyl-5H-[1,2,4]triazolo[4,3-a]quinoxalin-8-yl)-1H-indol-1-yl]-propionic acid methyl ester] | 1000 to 15000 nM
21 | Cc1nnc2n1-c1c(cc(F)c(-c3c(F)ccc4c3ccn4S(C)(=O)=O)c1F)NC2(C)C [Example 224, 7,9-Difluoro-8-(5-fluoro-1-methylsulfonyl-1H-indol-4-yl)-1,4,4-trimethyl-5H-[1,2,4]triazolo[4,3-a]quinoxaline] | 100 to 1000 nM
22 | Cc1cc(-c2c(F)cc3c(c2C)-n2c(C)nnc2C(C)(C)N3)c2ccn(S(C)(=O)=O)c2c1 [Example 493, 7-Fluoro-1,4,4,9-tetramethyl-8-(6-methyl-1-methylsulfonyl-1H-indol-4-yl)-5H-[1,2,4]triazolo[4,3-a] quinoxaline] | < 100 nM
